According to patent publication US20060079453A1, “Hla binding peptides and their uses” (priority 2002, published 2006):
Like-named read-outs stand apart in the source and are kept apart here. No end group written: not given here.

Columns and labels:
Experiment in all cases: biochemical
Type in all cases: binding
[1] = target: HLA-DR DRB1*0701 (DR7) (Homo sapiens, UniProt P01903+P01911, A100R/A102G/A103Q/D57E/D86V/E43K/F76Y/K127E/L162R/M171V/P40G/Q125H/Q99D/R33Q/R42Y/R54Q/S133A/S66F/T210M/V115G/Y107V/Y59L/Y89S)
[2] = target: HLA-DR DRB1*0401 (DR4) (Homo sapiens, UniProt P01903+P01911, A100K/A169T/F76Y/I96L/K127E/L162R/M171V/N62H/P40V/Q125Y/R42H/S133A/S149N/S66Y/V115G/V209L/W38E)
[3] = target: HLA-DR DRB1*0405 (DR4) (Homo sapiens, UniProt P01903+P01911, A100R/A169T/D86S/F76Y/I96L/K127E/L162R/M171V/N62H/P40V/Q125Y/R42H/S133A/S149N/S66Y/V115G/V209L/W38E)
[4] = target: HLA-DR DRB1*0901 (DR9) (Homo sapiens, UniProt P01903+P01911, A100R/A103E/D57H/D86V/F55Y/F60I/F76Y/I96F/K127E/L162R/M171V/P40D/Q125H/Q99R/R33Q/R42F/S133A/S66N/T210M/V115G/W38K/Y107V/Y59G/Y89S)
[5] = target: HLA-DR DRB1*0301 (DR3) (Homo sapiens, UniProt P01903+P01911, A100K/A102G/A103R/A169T/F55Y/I96L/K41T/L162R/M171V/P40S/Q125H/Q178H/Q39Y/R42S/S66N/T106N/T262R/W38E/Y61H)
Sequence of HLA-DR DRB1*0301 (DR3) (P01903 26-254 limits assumed, other chains not shown): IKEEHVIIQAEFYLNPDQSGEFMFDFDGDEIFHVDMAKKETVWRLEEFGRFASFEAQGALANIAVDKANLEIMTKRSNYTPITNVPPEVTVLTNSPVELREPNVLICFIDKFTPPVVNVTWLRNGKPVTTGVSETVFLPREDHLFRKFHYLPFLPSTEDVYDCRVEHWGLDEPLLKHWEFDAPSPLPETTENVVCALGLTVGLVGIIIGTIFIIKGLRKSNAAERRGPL

[6] = target: HLA-DR DRB1*0101 (DR1) (Homo sapiens, UniProt P01903+P01911, A100R/D57E/F55L/F60I/F76Y/I96L/L162R/M171V/P40L/Q125E/R42F/V115G/Y59C)
[7] = target: HLA-DR DRB4*0101 (DR53) (Homo sapiens, UniProt P01903+P13762, G164S); settings: DRB4 *0101
[8] = target: HLA-DR DRB5*0101 (DR51) (Homo sapiens, UniProt P01903+Q30154); settings: DRB5 *0101
[9] = target: HLA-DR DRB1*1302 (DR13) (Homo sapiens, UniProt P01903+P01911, A100E/A169T/K41T/L162R/M171V/P40S/Q125H/Q178H/Q39Y/Q99D/R42S/S66N/T262R/V115G/W38E/Y61H); settings: DRBI *1302
Sequence of HLA-DR DRB1*1302 (DR13) (P01903 26-254 limits assumed, other chains not shown): as above

[10] = target: HLA-DR DRB1*1501 (DR15) (Homo sapiens, UniProt P01903+P01911); settings: DRBI *1501
[11] = target: HLA-DR DRB1*1101 (DR11) (Homo sapiens, UniProt P01903+P01911, A100R/A169T/A87E/I96F/K41T/L162R/M171V/P40S/Q125H/Q178H/Q39Y/Q99D/R42S/S66Y/T262R/V115G/W38E); settings: DRB1 *1101
Sequence of HLA-DR DRB1*1101 (DR11) (P01903 26-254 limits assumed, other chains not shown): as above

[12] = target: HLA-A*3101 (Homo sapiens, UniProt P04439, A270S/D185E/E176V/E277Q/F33T/G231S/G80R/H175R/I121M/I218V/I322F/K168Q/L300P/L318F/M331R/P217A/Q94H/R138Q/T323A/T345S/T97I/V358M)
[13] = target: HLA-A*1101 (Homo sapiens, UniProt P04439, A114D/D185E/E176A/F33Y/L180Q/S129P/T187R)
Sequence of HLA-A*1101 (P04439 25-365 limits assumed, stated change not applied): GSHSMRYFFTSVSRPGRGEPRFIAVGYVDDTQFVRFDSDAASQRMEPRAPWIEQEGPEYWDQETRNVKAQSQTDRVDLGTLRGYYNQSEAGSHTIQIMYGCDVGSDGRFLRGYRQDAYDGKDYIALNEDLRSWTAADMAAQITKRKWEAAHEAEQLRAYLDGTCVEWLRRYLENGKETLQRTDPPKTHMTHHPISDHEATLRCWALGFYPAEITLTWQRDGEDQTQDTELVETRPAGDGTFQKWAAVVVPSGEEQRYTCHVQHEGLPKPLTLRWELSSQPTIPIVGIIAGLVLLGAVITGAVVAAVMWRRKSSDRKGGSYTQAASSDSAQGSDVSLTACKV

[14] = target: HLA-A*3301 (Homo sapiens, UniProt P04439, A270S/D185E/E176V/E277Q/E87N/F33T/G231S/H175R/I121M/I218V/I322F/K168Q/K210R/L300P/L318F/M331R/P217A/Q86R/Q94H/R138Q/T323A/T345S/T97I/V358M/Y195H)
[15] = target: HLA-A*0301 (Homo sapiens, UniProt P04439)
[16] = target: HLA-A*6801 (Homo sapiens, UniProt P04439, A269V/D185E/E176V/E277Q/E87N/F33Y/G231S/I121M/I166T/I218V/L180W/L300P/L318F/N151K/P208A/P217A/Q86R/R169H/T345S)

Row | Compound | IC50 ([1]; DRB1 *0701) [nM] | IC50 ([3]; DRB1 *0405) [nM] | IC50 [5] [nM] | IC50 ([6]; DRB1 *0101) [nM] | IC50 [7] [nM] | IC50 [8] [nM] | IC50 [9] [nM] | IC50 [10] [nM] | further results
1 | KKPLNEILIRCIICQ |  |  |  |  |  |  |  |  | IC50 ([1]; read-out: DRB1 *0701): 7970 nM; IC50 ([2]; read-out: DRB1 *0401): 315 nM; IC50 ([3]; read-out: DRB1 *0405): 347 nM
2 | VVQLDIQSTKEDLRV |  |  |  |  |  |  |  |  | IC50 ([1]; read-out: DRB1 *0701): 3760 nM; IC50 ([2]; read-out: DRB1 *0401): 11100 nM; IC50 ([3]; read-out: DRB1 *0405): 46 nM; IC50 ([4]; read-out: DRB1 *0901): 13900 nM
3 | CC[C@H](C)[C@H](NC(=O)[C@@H](N)Cc1c[nH]c2ccccc12)C(=O)N[C@H](C(=O)N[C@@H](CCC(N)=O)C(=O)N[C@@H](CS)C(=O)N[C@@H](Cc1ccccc1)C(=O)N[C@@H](CC(C)C)C(=O)N1CCC[C@H]1C(=O)N[C@H](C(=O)N[C@@H](Cc1ccccc1)C(=O)N[C@@H](CC(C)C)C(=O)N[C@@H](C)C(=O)N[C@@H](CCC(N)=O)C(=O)N1CCC[C@H]1C(=O)N1CCC[C@H]1C(=O)N[C@@H](CO)C(=O)NCC(=O)N[C@@H](CCC(N)=O)C(=O)N[C@@H](CCCNC(=N)N)C(=O)N[C@@H](CCCNC(=N)N)C(=O)O)C(C)C)[C@@H](C)O | 74200 | 216 | 25500 | 679 |  |  |  |  | IC50 ([2]; DRB1 *0401): 88 nM
4 | HQAISPRTLNGPGPGSPAIF | 5080 | 3110 | 728000 | 1550 | 232 | 32900 | 638 | 5570 | IC50 [11]: 9870 nM
5 | CC[C@H](C)[C@H](NC(=O)[C@H](CO)NC(=O)[C@H](CC(=O)O)NC(=O)[C@H](CCCNC(=N)N)NC(=O)[C@H](Cc1ccc(O)cc1)NC(=O)[C@@H](NC(=O)[C@@H](NC(=O)[C@H](Cc1ccccc1)NC(=O)[C@@H](N)CC(C)C)C(C)C)C(C)C)C(=O)N1CCC[C@H]1C(=O)N[C@@H](Cc1c[nH]cn1)C(=O)N[C@@H](C)C(=O)N[C@@H](C)C(=O)N[C@@H](CS)C(=O)N[C@@H](Cc1c[nH]cn1)C(=O)O | 2000 | 690 | 62 | 131 | 3580 | 7850 | 697 | 437 | IC50 ([2]; DRB1 *0401): 3 nM; IC50 [11]: 1580 nM
6 | IQQLLMGTVNIYCPT |  |  |  |  |  |  |  |  | IC50 ([3]; read-out: DRB1 *0405): 624 nM; IC50 ([5]; read-out: DRB1 *0301): 93700 nM; IC50 ([6]; read-out: DRB1 *0101): 71 nM
7 | YKFLFTDLRIVYRDN | 1520 | 91 | 8.8 | 109 | 1340 | 800 | 77 | 2910 | IC50 [11]: 10100 nM
8 | YLAMPFATPMEAELARRSLA |  | 405 | 46600 | 46 | 1960 | 641 | 2810 | 865 | IC50 ([2]; DRB1 *0401): 266 nM
9 | YDFVFADLRIVYRNG |  |  |  |  |  |  |  |  | IC50 ([1]; read-out: DRB1 *0701): 21400 nM; IC50 ([2]; read-out: DRB1 *0401): 1910 nM; IC50 ([3]; read-out: DRB1 *0405): 829 nM; IC50 ([5]; read-out: DRB1 *0301): 13 nM
10 | RQDILDLWVYHTQGY | 1630 | 1140 | 98300 | 2390 | 1330 | 16200 | 6780 | 723 | IC50 ([2]; DRB1 *0401): 1200 nM; IC50 [11]: > 51300 nM
11 | HYCYSLYGTTLEQQY | 9860 | 76 |  | 546 |  | > 10700 | > 13700 | 4850 | 
12 | VFEFAFKDLFVVYRD |  | 120 |  | 6720 | 18100 | > 10700 | 7670 | 4870 | IC50 ([4]; DRB1 *0901): 16800 nM
13 | RVHSIAGQYR |  |  |  |  |  |  |  |  | IC50 [12]: 7.6 nM; IC50 [13]: 34 nM; IC50 [14]: 812 nM; IC50 [15]: 31 nM; IC50 [16]: 28 nM
14 | TFLEKLTNK |  |  |  |  |  |  |  |  | IC50 [12]: 451 nM; IC50 [13]: 815 nM; IC50 [14]: 148 nM; IC50 [15]: 6840 nM; IC50 [16]: 918 nM
